# Measured values as given in US8637511B2, “Aminopyrimidines useful as kinase inhibitors” (Vertex Pharmaceuticals Incorporated, priority 2005, dated 2014).
# Values joined by “and” are separate entries in the source; they are usually repeats but may differ in a detail not shown here. Equal entries are not always repeated. Where two headings read alike, the source gives them in different places.
# Experiments:
# [1] = molecular target: Aurora-1 (Aurora B) (Homo sapiens, UniProt Q96GD4); test: Aurora-1 (Aurora B) inhibition assay (radiometric); type: biochemical
# In short: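 Radiometric ^33P incorporation into peptide substrate, with [γ-^33P]-ATP at 800 μM final, in 25 mM HEPES pH 7.5, 10 mM MgCl2, 0.1% BSA, 10% glycerol. Compound preincubated with enzyme for 10 min at 25° C, reaction run 3 h, then captured on phosphocellulose. Ki from initial rates by non-linear regression after background subtraction.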
# [2] = test system: Colo205 cells; test: Analysis of cell proliferation and viability; type: cell-based; conditions: Homo sapiens, COLO 205, Colo205 cells, read-out: IC50 value
# [3] = molecular target: T1, FLT-3 (Homo sapiens, UniProt P36888); test: FLT-3 inhibition assay, radiometric filter-binding; type: biochemical
# T1 sequence (P36888 27-993): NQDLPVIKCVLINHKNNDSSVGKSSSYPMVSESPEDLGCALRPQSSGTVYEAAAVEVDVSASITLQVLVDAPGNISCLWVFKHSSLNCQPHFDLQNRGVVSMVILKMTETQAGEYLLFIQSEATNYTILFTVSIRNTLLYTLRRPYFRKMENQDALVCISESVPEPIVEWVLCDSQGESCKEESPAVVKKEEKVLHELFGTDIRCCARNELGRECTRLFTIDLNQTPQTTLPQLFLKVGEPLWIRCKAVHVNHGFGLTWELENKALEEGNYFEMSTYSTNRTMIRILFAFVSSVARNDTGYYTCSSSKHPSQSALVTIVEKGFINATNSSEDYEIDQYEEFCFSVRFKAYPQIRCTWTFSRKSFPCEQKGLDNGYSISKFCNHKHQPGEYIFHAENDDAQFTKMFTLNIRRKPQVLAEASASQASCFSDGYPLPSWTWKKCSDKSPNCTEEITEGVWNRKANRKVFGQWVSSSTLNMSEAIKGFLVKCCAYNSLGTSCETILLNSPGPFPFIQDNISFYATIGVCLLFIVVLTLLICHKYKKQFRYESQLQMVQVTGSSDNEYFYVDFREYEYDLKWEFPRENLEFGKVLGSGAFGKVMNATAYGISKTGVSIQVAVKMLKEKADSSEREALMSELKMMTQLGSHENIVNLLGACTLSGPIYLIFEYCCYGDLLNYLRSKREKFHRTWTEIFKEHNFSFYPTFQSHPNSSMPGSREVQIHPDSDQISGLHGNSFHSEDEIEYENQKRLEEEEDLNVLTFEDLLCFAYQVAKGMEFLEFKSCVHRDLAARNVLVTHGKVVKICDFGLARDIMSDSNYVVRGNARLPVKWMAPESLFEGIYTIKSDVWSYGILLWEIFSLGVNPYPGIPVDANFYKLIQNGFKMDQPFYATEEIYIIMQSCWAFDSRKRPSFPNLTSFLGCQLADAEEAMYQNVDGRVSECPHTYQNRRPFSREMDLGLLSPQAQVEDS
# [4] = read-out: Aurora B kinase Ki value
# Aurora-1 (Aurora B), sequence (Q96GD4 whole entry): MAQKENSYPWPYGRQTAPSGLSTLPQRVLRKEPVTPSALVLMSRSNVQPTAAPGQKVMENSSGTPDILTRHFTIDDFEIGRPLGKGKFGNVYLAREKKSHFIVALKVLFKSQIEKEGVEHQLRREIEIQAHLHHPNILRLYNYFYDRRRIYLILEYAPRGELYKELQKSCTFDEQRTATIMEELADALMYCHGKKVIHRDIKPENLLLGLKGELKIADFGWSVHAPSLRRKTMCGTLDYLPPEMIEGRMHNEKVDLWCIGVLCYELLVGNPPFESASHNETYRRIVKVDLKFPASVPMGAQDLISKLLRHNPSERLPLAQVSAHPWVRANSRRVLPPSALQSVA
Structure (SMILES),"Ki [1, 4]",IC50 ([2]; incubated for 72 hours) [nM],Ki ([3]; read-out: FLT-3 Ki value) [nM],Ki [3] [nM],IC50 ([2]; incubated for 96 hours) [nM],Ki ([1]; Aurora B kinase Ki value)
Cc1cc(Nc2cc(N3CC(N4CCOCC4)C3)nc(Sc3ccc(NC(=O)C4(C(F)(F)F)CC4)cc3)n2)[nH]n1 [Compound 191],≤ 10 nM,≤ 30,150 to 1000,,,
Cc1ccc2cc(Sc3nc(Nc4cc(C)[nH]n4)cc(N4CC(C5CCC(F)C5)C4)n3)ccc2n1 (centres unmarked) [Compound 198],10 to 50 nM and < 25 nM,≤ 30,,50 to 150,,
Cc1cc(Nc2cc(N3CCC3)nc(Sc3ccc(NC(=O)C(C)CC(F)(F)F)cc3)n2)[nH]n1 (centres unmarked) [Compound 127],10 to 50 nM and < 25 nM,30 to 200,150 to 1000,,,
Cc1cc(Nc2cc(N3CCC3)nc(Sc3cccc(NC(=O)c4ccccc4Cl)c3)n2)[nH]n1 [Compound 49],50 to 2000 nM,,,150 to 1000,> 1000,
Cc1cc(Nc2cc(N3CCC3)nc(Sc3ccc(NC(=O)C4CC4(F)F)cc3)n2)[nH]n1 (centres unmarked) [Compound 112],10 to 50 nM and < 25 nM,> 200,≤ 50,,,
Cc1cc(Nc2cc(N3CCC3)nc(Sc3ccc(N)cc3)n2)[nH]n1 [Compound 108],50 to 2000 nM,,≤ 50,,> 1000,
CCC(=O)Nc1ccc(Sc2nc(Nc3cc(C)n[nH]3)cc(N3CC(C)(NC(C)(C)C)C3)n2)cc1 [Compound 80],10 to 50 nM,,50 to 150,,≤ 50,
Cc1cc(Nc2cc(N3CCC3)nc(Sc3ccc4ccccc4c3)n2)n[nH]1 [Compound 25],50 to 2000 nM,,,≤ 50,> 1000,
Cc1cc(Nc2cc(N3CCC3)nc(Sc3ccc(NC(=O)c4ccc(CN(C)C)cc4)cc3)n2)[nH]n1 [Compound 137],50 to 2000 nM,,50 to 150,,50 to 1000,
Cc1cc(Nc2cc(N3CC(N4CC[C@H](F)C4)C3)nc(Sc3ccc4ncccc4c3)n2)n[nH]1 [Compound 160],≤ 10 nM,≤ 30,,≤ 50,,
CC1=NN=C(Nc2cc(N3CCC3)nc(Sc3ccc(NC(=O)c4ccccc4Cl)cc3)n2)C1 [Compound 5],≤ 10 nM,30 to 200,50 to 150,,50 to 1000,
Cc1cc(Nc2cc(N3CCC3)nc(Sc3ccc(C(=O)N4CCCC4)cc3)n2)n[nH]1 [Compound 22],50 to 2000 nM,,,50 to 150,> 1000,
Cc1cc(Nc2cc(N3CCC3)nc(Sc3ccc(NC(=O)c4ccc(Cl)cc4)cc3)n2)n[nH]1 [Compound 54],50 to 2000 nM,,,150 to 1000,50 to 1000,
Cc1cc(Nc2cc(N3CCC3)nc(Sc3ccc(NC(=O)c4c(F)cccc4N4CCC4)cc3)n2)n[nH]1 [Compound 8],≤ 10 nM,,,50 to 150,50 to 1000,
Cc1cc(Nc2cc(N3CC(O)(C4CC4)C3)nc(Sc3ccc4ccccc4c3)n2)n[nH]1 [Compound 131],50 to 2000 nM,> 200,,≤ 50,,
Cc1cc(Nc2cc(N3CCC3)nc(Sc3ccc(NC(=O)c4nccn4C)cc3)n2)n[nH]1 [Compound 166],50 to 2000 nM,,,150 to 1000,> 1000,
CCC(=O)Nc1ccc(Sc2nc(C#CC(C)(C)N3CCC3)cc(Nc3cc(C)n[nH]3)n2)cc1 [Compound 77],50 to 2000 nM,,,150 to 1000,50 to 1000,

Structure (SMILES),"Ki [1, 4]",IC50 ([2]; incubated for 72 hours) [nM],Ki ([3]; read-out: FLT-3 Ki value) [nM],Ki [3] [nM],IC50 ([2]; incubated for 96 hours) [nM],Ki ([1]; Aurora B kinase Ki value)
Cc1cnc(Nc2cc(N3CC(N)C3)nc(Sc3ccc(NC(=O)C4CC4)cc3)n2)s1 [Compound 2],50 to 2000 nM,,,≤ 50,50 to 1000,
COC1CN(c2cc(Nc3cc(C)[nH]n3)nc(Sc3ccc(NC(=O)c4ccccc4Cl)cc3)n2)C1 [Compound 12],≤ 10 nM,,,50 to 150,≤ 50,
CC1=NN=C(Nc2cc(N3CCC3)nc(Sc3ccc(NC(=O)C4CCCN4C)cc3)n2)C1 (centres unmarked) [Compound 6],,,,150 to 1000,50 to 1000,10 to 50 nM and < 25 nM
Cc1cnc(Nc2cc(N3CC(N(C)C)C3)nc(Sc3ccc(NC(=O)C4CC4)cc3)n2)s1 [Compound 1],10 to 50 nM,,,50 to 150,50 to 1000,
Cc1cc(Nc2cc(N3CCC3)nc(Sc3ccc(C(=O)NCc4ccccc4)cc3)n2)n[nH]1 [Compound 19],≤ 10 nM,,,150 to 1000,> 1000,
Cc1cc(Nc2cc(N3CC(N4CCCC4)C3)nc(Sc3ccc4ncccc4c3)n2)n[nH]1 [Compound 159],≤ 10 nM,≤ 30,,≤ 50,,
Cc1cc(Nc2cc(N3CCC3)nc(Sc3ccc(NC(=O)C(C)(C)C)cc3)n2)[nH]n1 [Compound 114],10 to 50 nM,> 200,150 to 1000,,,
Cc1cc(Nc2cc(N3CCC3)nc(Sc3ccc(NC(=O)c4ccncc4C(F)(F)F)cc3)n2)[nH]n1 [Compound 146],≤ 10 nM,≤ 30,,150 to 1000,,
CCCNC(=O)Nc1ccc(Sc2nc(Nc3cc(C)[nH]n3)cc(N3CCC3)n2)cc1 [Compound 73],50 to 2000 nM,,,50 to 150,> 1000,
O=C(CC(F)(F)F)Nc1ccc(Sc2nc(Nc3cc[nH]n3)cc(N3CC(F)(C4CC4)C3)n2)cc1 [Compound 148],50 to 2000 nM,> 200,,50 to 150,,
Cc1ccc(C(=O)Nc2ccc(Sc3nc(Nc4cc(C)n[nH]4)cc(N4CCC4)n3)cc2)cn1 [Compound 145],50 to 2000 nM,> 200,150 to 1000,,,
CCC(=O)Nc1ccc(Sc2nc(Nc3cc(C)n[nH]3)cc(N3CC(C)(O)C3)n2)cc1 [Compound 71],10 to 50 nM,,50 to 150,,≤ 50,
Cc1cc(Nc2cc(N3CC(F)(C4CC4)C3)nc(Sc3ccc4nc(C(F)(F)F)[nH]c4c3)n2)[nH]n1 [Compound 202],10 to 50 nM and < 25 nM,30 to 200,,≤ 50,,
CCC(=O)Nc1ccc(Sc2nc(Nc3cc(C4CC4)n[nH]3)cc(N3CC(N4CCOCC4)C3)n2)cc1 [Compound 78],≤ 10 nM,,,≤ 50,≤ 50,
Cc1cc(Nc2cc(N3CC(F)(C4CC4)C3)nc(Sc3ccc(N)cc3)n2)[nH]n1 [Compound 209],50 to 2000 nM,,,≤ 50,,
Cc1cc(Nc2cc(N3CCC3)nc(Sc3ccc(N(C)C(=O)c4ccccc4F)cc3)n2)n[nH]1 [Compound 10],50 to 2000 nM,,,50 to 150,,
